Measurements: the SangsterLogP compilation

SMILES	logP
CCCc1nnc(-c2ccc(N)cc2)s1	2.53
Nc1ccc(-c2nc(Cc3ccccc3)no2)cc1	3.24
CC(C)c1noc(-c2ccc(N)cc2)n1	2.57
Nc1ccc(-c2nnc(Cc3ccccc3)o2)cc1	2.82
CCc1nsc(-c2ccc(N)cc2)n1	2.39
CCCc1noc(-c2ccc(N)cc2)n1	2.61
CCc1nc(-c2ccc(N)cc2)no1	2.13
Cc1nc(-c2ccc(N)cc2)no1	1.71
CCCc1nc(-c2ccc(N)cc2)no1	2.54
Nc1ccc(-c2nnc(-c3ccccc3)o2)cc1	2.91
CCCCC(=O)c1ccc(N)cc1	2.48
Nc1ccc(-c2nc(-c3ccccc3)no2)cc1	3.48
Cc1noc(-c2ccc(N)cc2)n1	1.89
CCC(=O)c1ccc(N)cc1	1.65

The next lines start with the values.

logP	SMILES
2.23	CC(C)c1nnc(-c2ccc(N)cc2)o1
1.63	Cc1nnc(-c2ccc(N)cc2)o1
2.27	CCCc1nnc(-c2ccc(N)cc2)o1
2.53	CC(C)(C)c1nnc(-c2ccc(N)cc2)o1
2.66	CCCCc1nnc(-c2ccc(N)cc2)o1
2.22	CCc1noc(-c2ccc(N)cc2)n1
1.92	CCc1nnc(-c2ccc(N)cc2)o1
